According to US12415799B2, “Indazole-fused cyclic compound” (Zhejiang Yangli Pharmaceutical Technology Co., Ltd., priority 2020, dated 2025):

Experiments:
CYP3A4 = CYP3A4 (Homo sapiens (Human), UniProt P08684); assay: Cytochrome P450 isoenzyme inhibition, human liver microsomes; type: in vitro ADME
Description: Experimental purposes: To test the inhibitory effect of test compound on the activity of human liver microsomal cytochrome P450 isoenzymes (CYP1A2 and CYP3A4) (Corning, Co., Ltd.).
Experimental operation: Firstly, the test compound (10 mM) was subjected to gradient dilution to prepare a working solution (100×final concentration), and the concentration of the working solution was: 5, 1.5, 0.5, 0.15, 0.05, 0.015 and 0.005 mM, respectively, and the working solution of each positive inhibitor of P450 isoenzyme (CYP1A2 and CYP3A4) and its specific substrate mixture (5 in 1) were prepared; and then the human liver microsomes frozen in the −80° C. refrigerator were thawed on ice, and all the human liver microsomes were dissolved, diluted with PB, and a certain concentration of working solution (0.253 mg/mL) was prepared; 20 μL of substrate mixture was added to the reaction plate (20 μL of PB was added to the blank well), while 158 μL of human liver microsomal working solution was added to the reaction plate, and the reaction plate was placed on ice for later use; at this time, 2 μL of various concentrations of the test compound (N=1) and specific inhibitor (N=2) were added to the corresponding well, and the corresponding organic solvent was added to the non-inhibitor (test compound or positive inhibitor) group as a control group sample (a ratio of DMSO:MeOH in the test compound control sample was 1:1, a ratio of DMSO:MeOH in the positive control sample was 1:9); after pre-incubation in a water bath at 37° C. for 10 min, 20 μL of coenzyme factor (NADPH) solution was added to the reaction plate, and incubated in a water bath at 37° C. for 10 min; and 400 μL of cold acetonitrile solution (internal standard was 200 ng/mL tolbutamide and labetalol) was added to terminate the reaction; the reaction plate was placed on a shaker and shaked for 10 minutes; and then centrifuged at 4,000 rpm for 20 minutes; 200 μL of the supernatant was taken and added to 100 μL of water for sample dilution; finally the plate was sealed, shaked and shaked well, for LC/MS/MS detection.

rat uterus = assay: Uterine wet weight inhibition experiment in rat cubs; type: in vivo; conditions: 18-day-old female rat pups, oral, three consecutive days; compounds 25 mg/kg, Ethinylestradiol 0.1 mg/kg
Description: The purpose of this experiment was to evaluate the effect of the compound of the present disclosure on uterine growth inhibition in 18 to 21-day-old female rat pups (provided by Beijing Vital River Laboratory Animal Technology Co., Ltd.). In this experiment, 18-day-old female rat pups were orally administered the compound of the present disclosure at a dose of 25 mg/kg for three consecutive days, and the control group was orally administered 0.1 mg/kg of Ethinylestradiol for three consecutive days, and the blank group was not given any drug except the corresponding solvent. Three days after the administration, the rats were sacrificed, and the weight of the rat uterus was weighed to observe the effect of the test drug on the growth inhibition of the rat uterus. Inhibition rate=100×[(VehicleEE−Cpd)/(VehicleEE−Vehicle)], VehicleEE was the wet weight of the rat uterus in the control group (administered 0.1 mg/kg of Ethinylestradiol orally); Cpd was the wet weight of the rat uterus in administration group; Vehicle was the wet weight of the rat uterus in the blank group.

[1] = In vivo pharmacokinetic study in mice; design: species or system female Balb/c mice
From the text: Experimental purposes: To test the drug concentration in plasma of mice at different times after intravenous and intragastric administration of the test compound by LC/MS/MS using female Balb/c mice as the experimental animals. To study the pharmacokinetics of the test compound in mice in vivo and evaluate their pharmacokinetic characteristics.
Experimental animals: 4 healthy female Balb/c mice were divided into 2 groups according to the principle of similar body weight, with 2 mice in each group in IV group and 2 mice in each group in PO group. Animals were purchased from Shanghai Lingchang Biotechnology Co., Ltd.
Appropriate number of samples were weighed and prepared into 1 mg/mL solution respectively, and the mixture was stirred and ultrasonicated to reach a clear state, and the solvent was 15% HP-β-CD.
Administration: After fasting overnight, IV group was administered intravenously, and the dosage of the test compound was 5 mg/kg; PO group was administered intragastrically, and the dosage of the test compound was 10 mg/kg.
After the female Balb/c mice in the intravenous injection group were given the test compound respectively, 30 μL of blood was collected from the saphenous vein at 0.0833, 0.25, 0.5, 1, 2, 4, 8, and 24 hours, and placed in a commercialized anticoagulant tube added with EDTA-K2 in advance. After intragastric administration of the test compound, 30 μL of blood was collected from the saphenous vein at 0.25, 0.5, 1, 2, 4, 8, 12 and 24 hours, respectively, and placed in a commercialized anticoagulant tube added with EDTA-K2 in advance. After centrifugation (3,200 g, 4° C., 10 minutes), the plasma was collected, transferred to a pre-cooled centrifuge tube, quickly frozen in dry ice, and stored in a refrigerator at −60° C. or lower, until LC-MS/MS analysis. Animals were allowed to eat 4 hours after administration. LC/MS/MS method was used to determine the content of the test compound in the plasma of mice after intravenous and intragastric administration. The linear range of the method was 2.00 to 2000 nM.

[2] = female, Balb/c, mouse, plasma, iv, i.v. 5 mg/kg
[3] = female, Balb/c, mouse, plasma, po, p.o. 10 mg/kg

Sequence of CYP3A4 (P08684 whole entry): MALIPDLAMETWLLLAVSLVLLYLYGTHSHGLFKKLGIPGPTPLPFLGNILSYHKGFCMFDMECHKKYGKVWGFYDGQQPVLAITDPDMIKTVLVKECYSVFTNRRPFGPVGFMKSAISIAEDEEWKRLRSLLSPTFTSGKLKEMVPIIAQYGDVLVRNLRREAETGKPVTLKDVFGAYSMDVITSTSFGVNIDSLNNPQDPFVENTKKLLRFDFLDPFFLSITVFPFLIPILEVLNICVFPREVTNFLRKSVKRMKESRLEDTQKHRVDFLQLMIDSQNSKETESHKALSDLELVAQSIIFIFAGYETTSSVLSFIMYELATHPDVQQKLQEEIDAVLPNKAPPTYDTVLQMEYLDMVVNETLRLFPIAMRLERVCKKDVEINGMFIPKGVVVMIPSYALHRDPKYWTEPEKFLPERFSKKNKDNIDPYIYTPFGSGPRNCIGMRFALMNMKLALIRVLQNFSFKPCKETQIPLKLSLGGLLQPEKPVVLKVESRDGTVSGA

IC50 (CYP3A4) [µM]	Inhibition rate (rat uterus) [%]	Uterine wet weight (rat uterus) [mg]	AUC(0-t) [1, 2] [µM·h]	clearance [1, 2] [mL/min/kg]	half-life [1, 2] [h]	Vd ([1]; female, Balb/c, mouse, plasma, iv, i.v. 5 mg/kg, read-out: Vdss) [L/kg]	bioavailability ([1]; female, Balb/c, mouse, plasma, oral, p.o. 10 mg/kg vs i.v. 5 mg/kg) [%]	AUC(0-t) [1, 3] [µM·h]	Cmax [1, 3] [nM]	half-life [1, 3] [h]	AUC0-last ([1]; i.v. 5 mg/kg) [µM·h]	Cl ([1]; i.v. 5 mg/kg) [mL/min/kg]	T1/2 ([1]; i.v. 5 mg/kg) [h]	Vdss ([1]; i.v. 5 mg/kg) [L/kg]	AUC0-last ([1]; p.o. 10 mg/kg) [µM·h]	Cmax ([1]; p.o. 10 mg/kg) [nM]	T1/2 ([1]; p.o. 10 mg/kg) [h]	F % ([1]; p.o. 10 mg/kg vs i.v. 5 mg/kg) [%]	Structure (SMILES)	Ratio of uterine wet weight/rat body weight (rat uterus) [mg/g]
47.2	95.8	52.34	8.47	18.3	6.85	10.6	71.8	11.7	937	7.67	–	–	–	–	–	–	–	–	FCCCN1CC(Nc2ccc(C3=C(CC(F)(F)F)CCCc4c3ccc3[nH]nc(F)c43)nc2)C1 [Compound 2]	0.84
25.7	99.0	49.725	–	–	–	–	–	–	–	–	5.27	30.2	5.16	11.1	5.856	779	4.72	55.4	FCCCN1CC[C@H](Nc2cnc(C3=C(CC(F)(F)F)CCCc4c3ccc3[nH]nc(F)c43)cn2)C1 [Compound 11A]	1.05
